Patent US20250352528A1, “TOPICAL ROSIGLITAZONE FOR RADIATION-INDUCED SKIN INJURY” (The Brigham and Women's Hospital, Inc., priority 2022, published 2025)

Tests used:
[1] = systemic rosiglitazone [Ref. 20,21]; cited from earlier work
PDGFRα+ cells = assay: Flow cytometry of hindlimb skin after lymphadenectomy; type: in vivo, mouse
Procedure: (§1) A total of 32 mice underwent lymphedema surgery were randomly assigned into two groups, lymphedema group and rosiglitazone group (n=16). Rosiglitazone (Combi-Blocks, San Diego, USA) was dissolved in DMSO at the concentration of 25 mg/ml, and was diluted in corn oil to the final concentration of 2.5 mg/ml before injection. Mice in rosiglitazone group were intraperitoneally injected with rosiglitazone (10 mg/kg) twice a week from the day of surgery (day 0, 3, 7, 10, 14, 17). Mice in lymphedema group were injected with corn oil only at same time point. 8 mice in lymphedema group and rosiglitazone group were sacrificed on day 7 (n=8 per group), the rest of them were sacrificed on day 21 (n=8 per group). Another 18 mice were randomly divided into three groups, normal control group, lymphedema group, and rosiglitazone group, skin cells from these mice were isolated and used for flow cytometry analysis at day 7 (n=3 per group per staining).
Flow cytometry was performed using single-cell suspensions obtained from skin and subcutaneous tissue. 1×1 cm tissue harvested from the mice hindlimb were minced with scissors and digested by using collagenase type I (1 mg/ml) and dispase (2 mg/ml) at 37° C. on a shaker. All suspensions were filtered through 100 μm filters.
Cells were then stained with following conjugated antibodies: APC-PDGFRα (1:100), APC-PDGFRβ (1:100), HCS LipidTOX red neutral lipid stains (1:200), APC-CD45 (1:150), PE-CD3 (1:150), PerCP-Cy5-CD4 (1:150). Flow cytometry was performed on the Beckman Cytoflex FCM using CytExpert software (Beckman Coulter, CA, USA) and data were analyzed with FlowJo software (Tree Star; Ashland, OR).

[2] = system: hindlimb secondary lymphedema after lymphadenectomy; assay: Mouse hind limb lymphedema model (lymphadenectomy): limb measurements and histology; type: in vivo; settings: rosiglitazone 10 mg/kg i.p. twice a week; for Dermal thickness / Overall skin thickness / Subdermal layer (fibroadipose tissue) thickness: H&E
Source text: Evans blue (Sigma) (4% in PBS) was filtered and injected into mouse foot pad to stain lymph nodes in hind limb. Mouse hind limb secondary lymphedema was induced by surgical excision of the ipsilateral superficial inguinal, popliteal, deep inguinal lymph nodes, and the femoral lymphatic vessel. During surgical procedures, electrocauterization were used to prevent bleeding.
as §1
Sacrifice was performed via CO2 asphyxiation. Skin and muscle of hind limb were harvested, fixed in 10% formalin for 48 h followed by 70% ethanol for histological assessment. Formalin-fixed tissues were then dehydrated, embedded in paraffin, and sectioned with 5-micron-thickness.
Sections were stained either with Hematoxylin and Eosin (H&E) or Picrosirius Red according to standard protocol, and used to assess the overall skin thickness, dermal thickness, fibroadipose tissue thickness, and fibrosis, respectively. Quantitative histological analysis was performed using samples from day 7 and 21.
Images were captured by using Olympus BX53 (UCMAD3, T7, Japan) and all-in-one Keyence (Itasca, IL, USA) microscopes and assessed by ImageJ (version 1.52a; […]) by two independent researchers under blinded conditions. Fibrosis was assessed with the image thresholding plugin in ImageJ software, normalization is based on the length of the section (v1.52a; […]).

[3] = system: adipose-derived mesenchymal stem cells (AdMSCs) treated with TGFβ1; assay: Adipogenic and fibrogenic gene expression (RT-PCR) in AdMSCs treated with TGFβ1 with or without rosiglitazone; type: cell-based, mouse; settings: TGFβ1 10 ng/ml + rosiglitazone 10 μM, 7 days, v. TGFβ1 without rosiglitazone
Procedure: Previous studies have established that PPARg agonists reverse the effects of pro-fibrotic transforming growth factor-beta (TGFβ) ligands.
Mice adipose-derived stem cells (ADSCs) were isolated from adult male C57BL/6J mice inguinal fat pad. ADSCs were cultured in DMEM/F12 (Sigma, Logan, UT) supplemented with 10% Fetal Bovine Serum (FBS) (Sigma) and antibiotics (penicillin and streptomycin, Hyclone). ADSCs were maintained at 37° C. under a 5% CO2 atmosphere. For rosiglitazone treatment experiment, ADSCs were treated with/without recombinant TGFβ1 (10 ng/ml) (Invitrogen, USA) and rosiglitazone (10 μM) for 7 days after seeded ([…]) in 6-well plates.
Total RNA was isolated from ADSCs using TRI reagent and RNA extraction kit (Zymo Research, Irvine, CA). First-strand cDNA was synthesized by using iScript RT-PCR mix (BioRad, Hercules, CA) according to user manual. SYBR green qPCR master Mix (BioRad, Hercules, CA), primers, and cDNA were mixed in a final reaction volume of 10 μl. Real time polymerase chain reaction (RT-PCR) were performed by using Applied Biosystems 7300 Fast Real-Time PCR System (AB) according to the manufacturer's instructions.

[4] = 1 cm×1 cm area of skin, day 7 after lymphadenectomy
[5] = 1 week after lymphadenectomy, normalized to uninjured hindlimb

## CN(CCOc1ccc(CC2SC(=O)NC2=O)cc1)c1ccccn1 (stereo not shown) [rosiglitazone]
[1]
  Adverse effects: fluid retention, heart failure, and fractures
PDGFRα+ cells; [4]
  Absolute number of PDGFRα+LipidTOX+ cells: 862
  FSC^high PDGFRα+LipidTOX+ cells (cell size): 73
  PDGFRα+ cells, absolute count: 0.9×10^3
PDGFRα+ cells; day 7 after lymphadenectomy, results section
  PDGFRα+LipidTOX+ cells as a proportion of total PDGFRα cells: 86%
PDGFRα+ cells; rosiglitazone-treated samples
  Share of PDGFRα+ cells that were LipidTOX+: over 90%
[2]; [5]
  Normalized edema size: 1.08
  Normalized hindlimb circumference: 1.31
[2]; 1 week
  Dermal thickness: 438.54
  Overall skin thickness: 924.66 μm
  Subdermal layer (fibroadipose tissue) thickness: 486.12 μm
  Normalized hindlimb fibrosis (picrosirius red): 0.130
[2]; 3 week
  Dermal thickness: 403.76
  Overall skin thickness: 646.12 μm
  Subdermal layer (fibroadipose tissue) thickness: 242.36 μm
  Normalized hindlimb fibrosis (picrosirius red): 0.128
[3]
  Adipoq expression level: 2.40
  Col1a1 expression level: 0.76
  Ctgf expression level: 0.80
  Fn1 expression level: 0.82
  Lpl expression level: 2.53
  Pdgfra expression level: 0.72
